Data as given in patent US20220054494A1, “METHODS FOR TREATING BLADDER AND URETHRA DYSFUNCTION AND DISEASE” (University of Pittsburgh - Of the Commonwealth System of …, priority 2019, published 2022).
Entries after “also recorded” stand apart in the source; their conditions may differ.

Experiments:
AVP receptor V1a = experiment: Western immunoblotting, kidney V1a vasopressin receptor; assay type: in vivo, rat; settings: aged Fisher 344 rats; 8-AG 5 mg kg/day via drinking water, 1 month
Method: Western immunoblotting and transmission electron microscopy: Following these testing paradigms, rats were deeply anesthetized, bladders were removed, and one half of each bladder (using the smooth muscle layer) was homogenized using Lysing Matrix D in a FASTPREP-24™ instrument (MP BIOMEDICALS™, Solon, Ohio) in HBSS (5 mM KCl, 0.3 mM KH2PO4, 138 mM NaCl, 4 mM NaHO3, 0.3 mM Na2HCO3, 0.3 mM Na2HPO4, 5.6 mM glucose and 10 mM Hepes, pH 7.4) containing complete protease inhibitor cocktail (1 tablet/10 ml, ROCHE™, Indianapolis, Ind.) and phosphatase inhibitor cocktail (SIGMA®, 1:100). Whole rat kidney was also homogenized using the same procedure. After centrifugation (13000 rpm; 15 min at 4° C.), the membrane protein fraction was prepared by suspending the membrane pellets in lysis buffer containing 0.3 M NaCl, 50 mM Tris-HCl (pH 7.6), 0.5% Triton X-100, and the same concentration of protease inhibitors as above. […] The protein concentrations of the combined supernatants were determined using the PIERCE™ BCA protein assay (THERMO SCIENTIFIC™, Rockford, Ill.). […] As a loading control, total protein per sample was determined using BIO-RAD™ Stain Free SDS-PAGE gel technology. UV-activated protein fluorescence was imaged on a CHEMIDOC™ MP (BIO-RAD™). […] The volume (intensity) of each protein species was determined and normalized to total protein using Image Lab software (BIO-RAD™).

LC3 = experiment: Western immunoblotting, LC3 (lipidated form); assay type: in vivo, rat; settings: aged rats; oral 8-AG 5 mg/kg/day, 6 weeks
Method: Western immunoblotting: Following the testing paradigms, rats were deeply anesthetized, bladders as well as the proximal urethra were removed, and one half of each preparation was homogenized using Lysing Matrix D in a FastPrep 24 instrument (MP Biomedicals, Solon, Ohio) in HBSS [5 mM KCl, 0.3 mM KH2PO4, 138 mM NaCl, 4 mM NaHO3, 0.3 mM Na2HCO3, 0.3 mM Na2HPO4, 5.6 mM glucose, and 10 mM Hepes, pH 7.4 containing a complete protease inhibitor cocktail (1 tablet/10 ml, ROCHE®, Indianapolis, Ind.) and a phosphatase inhibitor cocktail (SIGMA®, 1:100)]. After centrifugation (13000 rpm; 15 min at 4° C.), the membrane protein fraction was prepared by suspending the membrane pellets in lysis buffer containing 0.3 M NaCl, 50 mM Tris-HCl (pH 7.6), and 0.5% Triton X-100 and the same concentration of protease inhibitors as above. The suspensions were incubated on ice and centrifuged (13000 rpm; 15 min at 4° C.). The protein concentrations of the combined supernatants were determined using the PIERCE® BCA protein assay (THERMO SCIENTIFIC®, Rockford, Ill.). […] As a loading control, total protein per sample was determined using Bio-Rad Stain Free SDS-PAGE gel technology. UV-activated protein fluorescence was imaged on a CHEMIDOC® MP (BIO-RAD®). […] The volume (intensity) of each protein species was determined and normalized to total protein using Image Lab software (BIO-RAD®).

Nc1nc2[nH]c(N)nc2c(=O)[nH]1 [8-AG, 8-Aminoguanine]
V1a vasopressin receptor in kidney (AVP receptor V1a): restored to a younger state; also recorded: restored to levels similar to the younger state | LC3 (lipidated form) expression in detrusor (LC3): partially restores expression toward younger state; also recorded: trend toward reversal
